Reference: US9302999B2, “Substituted triazoles as herbicides” (E. I. DU PONT DE NEMOURS AND COMPANY, priority 2012, dated 2016)
Where two headings read alike, the source gives them in different places.

How the values were obtained:
Type in all cases: in vivo
[1] = tested on: crabgrass, large (large crabgrass, Digitaria sanguinalis); assay: Test A pre-/postemergence: crabgrass, large; conditions: for pest or weed control at 125 g/ha / pest or weed control at 500 g/ha: Digitaria sanguinalis, 240 h
Outline: (§1)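 Whole-plant greenhouse assay in loam/sand. Preemergence directed soil spray plus simultaneous postemergence spray (one- to two-leaf stage, 2–10 cm). Rated visually ~10 days later, 0 = no effect, 100 = complete control.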

[2] = tested on: foxtail, giant (giant foxtail, Setaria faberii); assay: Test A pre-/postemergence: foxtail, giant; conditions: for pest or weed control at 125 g/ha / pest or weed control at 500 g/ha: Setaria faberi, 240 h
Outline: as §1

[3] = tested on: velvetleaf (Abutilon theophrasti); assay: Test A pre-/postemergence: velvetleaf; conditions: for pest or weed control at 125 g/ha / pest or weed control at 500 g/ha: Abutilon theophrasti, 240 h
Outline: as §1

[4] = tested on: morningglory (Ipomoea spp.); assay: Test A pre-/postemergence: morningglory; conditions: for pest or weed control at 125 g/ha / pest or weed control at 500 g/ha: Ipomoea, 240 h
Outline: as §1

[5] = tested on: barnyardgrass (Echinochloa crus-galli); assay: Test A pre-/postemergence: barnyardgrass; conditions: for pest or weed control at 125 g/ha / pest or weed control at 500 g/ha: Echinochloa crus-galli, 240 h
Outline: as §1

[6] = tested on: corn (Zea mays); assay: Test A pre-/postemergence: corn
Outline: as §1

[7] = tested on: pigweed (Amaranthus retroflexus); assay: Test A pre-/postemergence: pigweed; conditions: for pest or weed control at 125 g/ha / pest or weed control at 500 g/ha: Amaranthus retroflexus, 240 h
Outline: as §1

[8] = tested on: wheat (Triticum aestivum); assay: Test A pre-/postemergence: wheat; conditions: for plant injury at 125 g/ha / plant injury at 500 g/ha: Triticum aestivum, 240 h
Outline: as §1

[9] = Postemergence, 125 g ai/ha, 0 to 100 scale, 0 is no effect, 100 is complete control
[10] = Postemergence, 500 g ai/ha, visual rating on 0 to 100 scale (0 no effect, 100 complete control), approximately ten days
[11] = Preemergence, 125 g ai/ha, 0 to 100 scale (0 no effect, 100 complete control)
[12] = Preemergence, 500 g ai/ha, 0 to 100 scale, 0 is no effect, 100 is complete control
[13] = Preemergence, 125 g ai/ha, 0 to 100 scale where 0 is no effect and 100 is complete control

OCc1nn(-c2ccc(C(F)(F)F)cc2)nc1Oc1cccc(OC(F)(F)F)c1 [Compound 114, 5-[3-(trifluoromethoxy)phenoxy]-2-[4-(trifluoromethyl)phenyl]-2H-1,2,3-triazole-4-methanol]
pest or weed control at 125 g/ha ([1]; post-emergence, Postemergence, 125 g ai/ha, 0 to 100 scale, 0 is no effect, 100 is complete control, read-out: Crabgrass, Large plant response rating): 30% | pest or weed control at 500 g/ha ([1]; post-emergence, Postemergence, 500 g ai/ha, visual rating on 0 to 100 scale (0 no effect, 100 complete control), approximately ten days, read-out: Crabgrass, Large plant response rating): 70% | pest or weed control at 125 g/ha ([1]; pre-emergence, Preemergence, 125 g ai/ha, 0 to 100 scale where 0 is no effect and 100 is complete control, read-out: Plant response rating, Crabgrass, Large): 0% | pest or weed control at 500 g/ha ([1]; pre-emergence, Preemergence, 500 g ai/ha, 0 to 100 scale (0 no effect, 100 complete control), read-out: Plant response rating, Crabgrass, Large): 30% | pest or weed control at 125 g/ha ([2]; post-emergence, Postemergence, 125 g ai/ha, 0 to 100 scale, 0 is no effect, 100 is complete control, read-out: Foxtail, Giant plant response rating): 30% | pest or weed control at 500 g/ha ([2]; post-emergence, Postemergence, 500 g ai/ha, visual rating on 0 to 100 scale (0 no effect, 100 complete control), approximately ten days, read-out: Foxtail, Giant plant response rating): 40% | pest or weed control at 125 g/ha ([2]; pre-emergence, Preemergence, 125 g ai/ha, 0 to 100 scale where 0 is no effect and 100 is complete control, read-out: Plant response rating, Foxtail, Giant): 0% | pest or weed control at 500 g/ha ([2]; pre-emergence, Preemergence, 500 g ai/ha, 0 to 100 scale (0 no effect, 100 complete control), read-out: Plant response rating, Foxtail, Giant): 10% | pest or weed control at 125 g/ha ([3]; post-emergence, Postemergence, 125 g ai/ha, 0 to 100 scale, 0 is no effect, 100 is complete control, read-out: Velvetleaf plant response rating): 30% | pest or weed control at 500 g/ha ([3]; post-emergence, Postemergence, 500 g ai/ha, visual rating on 0 to 100 scale (0 no effect, 100 complete control), approximately ten days, read-out: Velvetleaf plant response rating): 50% | pest or weed control at 125 g/ha ([3]; pre-emergence, Preemergence, 125 g ai/ha, 0 to 100 scale where 0 is no effect and 100 is complete control, read-out: Plant response rating, Velvetleaf): 0% | pest or weed control at 500 g/ha ([3]; pre-emergence, Preemergence, 500 g ai/ha, 0 to 100 scale (0 no effect, 100 complete control), read-out: Plant response rating, Velvetleaf): 10% | pest or weed control at 125 g/ha ([4]; post-emergence, Postemergence, 125 g ai/ha, 0 to 100 scale, 0 is no effect, 100 is complete control, read-out: Morningglory plant response rating): 60% | pest or weed control at 500 g/ha ([4]; post-emergence, Postemergence, 500 g ai/ha, visual rating on 0 to 100 scale (0 no effect, 100 complete control), approximately ten days, read-out: Morningglory plant response rating): 90% | pest or weed control at 125 g/ha ([4]; pre-emergence, Preemergence, 125 g ai/ha, 0 to 100 scale where 0 is no effect and 100 is complete control, read-out: Plant response rating, Morningglory): 10% | pest or weed control at 500 g/ha ([4]; pre-emergence, Preemergence, 500 g ai/ha, 0 to 100 scale (0 no effect, 100 complete control), read-out: Plant response rating, Morningglory): 30% | pest or weed control at 125 g/ha ([5]; post-emergence, Postemergence, 125 g ai/ha, 0 to 100 scale, 0 is no effect, 100 is complete control, read-out: Barnyardgrass plant response rating): 30% | pest or weed control at 500 g/ha ([5]; post-emergence, Postemergence, 500 g ai/ha, visual rating on 0 to 100 scale (0 no effect, 100 complete control), approximately ten days, read-out: Barnyardgrass plant response rating): 30% | pest or weed control at 125 g/ha ([5]; pre-emergence, Preemergence, 125 g ai/ha, 0 to 100 scale where 0 is no effect and 100 is complete control, read-out: Plant response rating, Barnyardgrass): 0% | pest or weed control at 500 g/ha ([5]; pre-emergence, Preemergence, 500 g ai/ha, 0 to 100 scale (0 no effect, 100 complete control), read-out: Plant response rating, Barnyardgrass): 0% | plant injury at 125 g/ha ([6]; Zea mays, post-emergence, 240 h, Postemergence, 125 g ai/ha, 0 to 100 scale, 0 is no effect, 100 is complete control, read-out: Corn plant response rating): 20% | plant injury at 500 g/ha ([6]; Zea mays, post-emergence, 240 h, Postemergence, 500 g ai/ha, visual rating on 0 to 100 scale (0 no effect, 100 complete control), approximately ten days, read-out: Corn plant response rating): 30% | Corn plant response rating (crop injury, 0 = no effect, 100 = complete kill) at 125 g/ha ([6]; Zea mays, pre-emergence, 240 h, Preemergence, 125 g ai/ha, 0 to 100 scale where 0 is no effect and 100 is complete control): 0% | Corn plant response rating (crop injury, 0 = no effect, 100 = complete kill) at 500 g/ha ([6]; Zea mays, pre-emergence, 240 h, Preemergence, 500 g ai/ha, 0 to 100 scale (0 no effect, 100 complete control)): 0% | pest or weed control at 125 g/ha ([7]; post-emergence, Postemergence, 125 g ai/ha, 0 to 100 scale, 0 is no effect, 100 is complete control, read-out: Pigweed plant response rating): 80% | pest or weed control at 500 g/ha ([7]; post-emergence, Postemergence, 500 g ai/ha, visual rating on 0 to 100 scale (0 no effect, 100 complete control), approximately ten days, read-out: Pigweed plant response rating): 90% | pest or weed control at 125 g/ha ([7]; pre-emergence, Preemergence, 125 g ai/ha, 0 to 100 scale where 0 is no effect and 100 is complete control, read-out: Plant response rating, Pigweed): 0% | pest or weed control at 500 g/ha ([7]; pre-emergence, Preemergence, 500 g ai/ha, 0 to 100 scale (0 no effect, 100 complete control), read-out: Plant response rating, Pigweed): 10% | plant injury at 125 g/ha ([8]; post-emergence, Postemergence, 125 g ai/ha, 0 to 100 scale, 0 is no effect, 100 is complete control, read-out: Wheat plant response rating): 10% | plant injury at 500 g/ha ([8]; post-emergence, Postemergence, 500 g ai/ha, visual rating on 0 to 100 scale (0 no effect, 100 complete control), approximately ten days, read-out: Wheat plant response rating): 30% | plant injury at 125 g/ha ([8]; pre-emergence, Preemergence, 125 g ai/ha, 0 to 100 scale where 0 is no effect and 100 is complete control, read-out: Plant response rating, Wheat): 0% | plant injury at 500 g/ha ([8]; pre-emergence, Preemergence, 500 g ai/ha, 0 to 100 scale (0 no effect, 100 complete control), read-out: Plant response rating, Wheat): 0%

OCc1nn(-c2ccc(C(F)(F)F)cc2)nc1Oc1cccc(C(F)(F)F)c1 [Compound 110]
Crabgrass, Large plant response rating [1, 9]: 50 | Crabgrass, Large plant response rating [1, 10]: 70 | Plant response rating, Crabgrass, Large [1, 11]: 0 | Plant response rating, Crabgrass, Large [1, 12]: 20 | Foxtail, Giant plant response rating [2, 9]: 20 | Foxtail, Giant plant response rating [2, 10]: 30 | Plant response rating, Foxtail, Giant [2, 13]: 0 | Plant response rating, Foxtail, Giant [2, 12]: 20 | Velvetleaf plant response rating [3, 9]: 30 | Velvetleaf plant response rating [3, 10]: 60 | Plant response rating, Velvetleaf [3, 13]: 0 | Plant response rating, Velvetleaf [3, 12]: 10 | Morningglory plant response rating [4, 9]: 90 | Morningglory plant response rating [4, 10]: 100 | Plant response rating, Morningglory [4, 13]: 10 | Plant response rating, Morningglory [4, 12]: 20 | Barnyardgrass plant response rating [5, 9]: 20 | Barnyardgrass plant response rating [5, 10]: 30 | Plant response rating, Barnyardgrass [5, 11]: 0 | Plant response rating, Barnyardgrass [5, 12]: 0 | Corn plant response rating [6, 9]: 20 | Corn plant response rating [6, 10]: 30 | Plant response rating, Corn [6, 11]: 0 | Plant response rating, Corn [6, 12]: 0 | Pigweed plant response rating [7, 9]: 70 | Pigweed plant response rating [7, 10]: 100 | Plant response rating, Pigweed [7, 13]: 0 | Plant response rating, Pigweed [7, 12]: 50 | Wheat plant response rating [8, 9]: 10 | Wheat plant response rating [8, 10]: 30 | Plant response rating, Wheat [8, 13]: 0 | Plant response rating, Wheat [8, 12]: 0
